Results reported in BindingDB's records for patent US11518761 (Vyera Pharmaceuticals, 2022).

Molecular target: T1, Calmodulin-domain protein kinase 1 (Toxoplasma gondii, UniProt Q9BJF5)
T1 sequence (Q9BJF5 whole entry): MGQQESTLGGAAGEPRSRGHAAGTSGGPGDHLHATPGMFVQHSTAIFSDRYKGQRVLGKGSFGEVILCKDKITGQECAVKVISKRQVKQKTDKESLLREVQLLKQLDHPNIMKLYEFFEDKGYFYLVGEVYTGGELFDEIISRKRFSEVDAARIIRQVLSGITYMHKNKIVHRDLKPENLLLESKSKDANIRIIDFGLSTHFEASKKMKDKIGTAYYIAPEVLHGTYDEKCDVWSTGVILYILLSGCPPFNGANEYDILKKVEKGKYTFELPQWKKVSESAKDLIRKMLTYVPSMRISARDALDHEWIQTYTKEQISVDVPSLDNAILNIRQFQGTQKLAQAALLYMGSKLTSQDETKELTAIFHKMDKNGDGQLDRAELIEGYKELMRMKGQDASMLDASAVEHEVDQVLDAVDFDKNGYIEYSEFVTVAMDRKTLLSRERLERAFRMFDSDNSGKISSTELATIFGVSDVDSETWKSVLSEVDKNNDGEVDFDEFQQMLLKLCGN
Experiment: Inhibition Assay
Procedure: Certain of the compounds prepared as described above were assayed to determine their IC50 for inhibition of T. gondii CDPK1 (tgCDPK1). At least three independent replicates of the assay were conducted for each compound tested.

SMILES | IC50 [nM]
N#Cc1cccc(Oc2nn([C@H]3C[C@H](F)C3)c3ncnc(N)c23)c1 [US11518761, Example 173] | 49.8
N#Cc1cccc(Oc2nn([C@H]3C[C@H](O)C3)c3ncnc(N)c23)c1 [US11518761, Example 178] | 79.6
